Data published in publication PMC9654711, “Neuroprotective Action of Coumarin Derivatives through Activation of TRKB-CREB-BDNF Pathway and Reduction of Caspase Activity in Neuronal Cells Expressing Pro-Aggregated Tau Protein” (International Journal of Molecular Sciences, 2022).
Blank lines part the entries; values can stand above or below the compound they belong to.

What was measured:
[1] = molecular target: T1, E. coli-expressed ΔK280 tauRD protein (Homo sapiens, UniProt P10636, DEL597-597); experiment: Anti-ΔK280 tauRD aggregation assay (thioflavin T); format: biochemical; details: compounds tested 1–10 μM, 20 μM protein, 48 h, linear interpolation, read-out: EC50 for ΔK280 tauRD aggregation inhibition
T1 construct: assessed by using E. coli-expressed ΔK280 tauRD protein; made in house; host or cells: E. coli
T1 sequence (P10636 with tags, fused parts or gaps DEL597-597): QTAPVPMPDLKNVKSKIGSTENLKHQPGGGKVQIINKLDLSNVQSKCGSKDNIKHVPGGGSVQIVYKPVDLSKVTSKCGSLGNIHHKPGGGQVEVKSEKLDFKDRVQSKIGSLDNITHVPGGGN
Method: Thioflavin T is widely used to visualize and quantify the presence of misfolded amyloid protein aggregates in vitro [74]. The tau aggregation inhibiting potential of Congo red, LM-031 and LMDS-1 to -4 was assessed by using E. coli-expressed ΔK280 tauRD protein [28]. Briefly, purified ΔK280 tauRD protein (20 μM) was incubated with Congo red or coumarin compounds (1–10 μM) in 150 mM NaCl and 20 mM Tris-HCl pH8.0, at 37 °C with shaking for 48 h to form aggregates. Then, thioflavin T (final 5 μM; Acros Organics, Geel, Belgium) was added and incubated for 25 min at room temperature. Fluorescence intensity of samples was recorded at excitation/emission wavelengths of 420/485 nm using an FLx800 microplate reader (BioTek, Winooski, VT, USA). The half maximal effective concentration (EC50) values were calculated by using a linear interpolation method.

[2] = Oxygen radical antioxidant capacity (ORAC) assay; details: compound at 100 μM
Method: In addition, an oxygen radical antioxidant capacity (ORAC) assay was performed using an OxiSelect™ kit according to the manufacturer’s instruction (Cell Biolabs, San Diego, CA, USA). Briefly, Trolox standards (2.5–50 μM) and samples (4–100 μM) were diluted with 50% acetone. Blank (50% acetone), standards and samples were mixed with fluorescein and incubated at 37 °C for 30 min. Following the free radical initiator 2,2′-azobis(2-methylpropionamidine) dihydrochloride (AAPH), the produced peroxyl radicals (ROO•) quench the fluorescent probe over time. Antioxidants present in the assay block the peroxyl radical oxidation of the fluorescent probe. The course of the reaction was recorded for 60 min, with one measurement every five minutes using a BioTek FLx800 microplate reader. The excitation and emission wavelengths were set at 480 nm and 520 nm, respectively. To quantify the oxygen radical antioxidant activity in a sample, the area under the curve (AUC) for blank, standard and samples was calculated. After subtraction of the blank, the equivalent Trolox concentrations of samples were expressed based on the Trolox standard curve.

[3] = tested on: ΔK280 tauRD-DsRed SH-SY5Y cells; experiment: High-content analysis of neurite outgrowth; format: cell-based, human; details: 10 µM; for Neurite branching: induced untreated 0.87, uninduced 0.99; for Neurite length: induced untreated 27.2 μm, uninduced 30.9 μm
Method: As described, ∆K280 tauRD-DsRed SH-SY5Y cells were seeded in a 24-well plate (5 × 10^4/well) with retinoic acid addition on day 1, treated with tested compounds (10 µM) and ∆K280 tauRD-DsRed expression was induced with doxycycline (2 μg/mL) on day 2. On day 8, after being fixed in 4% paraformaldehyde for 15 min, permeabilized in 0.1% Triton X-100 for 10 min and blocked in 3% bovine serum albumin (BSA) for 20 min, the cells were stained with TUBB3 (neuronal class III β-tubulin) primary antibody (1:1000; BioLegend, San Diego, CA, USA) at 4 °C overnight, followed by goat anti-rabbit Alexa Fluor® 555 secondary antibody (1:1000; Molecular probes) at room temperature for 2 h, with 4′-6-diamidino-2-phenylindole (DAPI, 0.1 µg/mL; Sigma-Aldrich) included for nuclei staining. Neuronal images were captured using the high-content analysis system as described. Neurite total length (μm), processes (primary neurite extensions projecting directly from the cell body) and branching (points at which primary neurites bifurcated) were analyzed using Neurite Outgrowth Application Module (MetaXpress; Molecular Devices). Around 5000 cells were analyzed in each of three independent experiments for each sample.

[4] = tested on: p-TRKB (Y516 and Y817); experiment: Immunoblot of p-TRKB (Y516 and Y817); format: cell-based, human; details: for p-TRKB Y516 level / p-TRKB Y817 level: 10 µM; for p-TRKB Y516 level: induced untreated 67%; for p-TRKB Y817 level: induced untreated 74%; for p-TRKB (Y516/Y817) level: BDNF 100 ng/mL, LMDS-1/2 10 μM, induced untreated 77–83%, Figure 6B
Method: (§1) ∆K280 tauRD-DsRed SH-SY5Y cells in 6-well plates (5 × 10^5/well) were treated with retinoic acid (10 µM) on day 1, followed by LMDS-1 or -2 (10 µM) and doxycycline (2 µg/mL) addition on day 2 as described. ERK inhibitor U0126 or PI3K inhibitor wortmannin (10 μM) (LC Laboratories, Woburn, MA, USA) was added on day 6. On day 8, the cells were collected for BDNF, BCL2, BAX and total/phosphorylated TRKB, ERK, AKT, CREB protein analyses as described.
∆K280 tauRD-DsRed SH-SY5Y cells were lysed in buffer containing 50 mM Tris-HCl (pH 8.0), 150 mM NaCl, 1 mM EDTA (pH 8.0), 1 mM EGTA (pH 8.0), 0.1% SDS, 0.5% sodium deoxycholate, 1% Triton X-100 and protease (Sigma-Aldrich)/phosphatase (Roche, Basel, Switzerland) inhibitor cocktails. After two sonications with an interval of 30 min on ice, cell lysates were collected by centrifugation at 14,000× g for 30 min at 4 °C. Protein concentrations were determined using a Bradford assay (Bio-Rad, Hercules, CA, USA). Protein samples (25 µg) were separated by 10–12% SDS-PAGE and transferred to polyvinylidene difluoride (PVDF) membranes (Sigma-Aldrich). After blocking for 2 h with 10% skimmed milk or 5% BSA in 0.1% Tween 20 in Tris-buffered saline (TBST), the membrane was incubated with primary antibody against BDNF (1:500; Santa Cruz, Santa Cruz, CA, USA), BCL2 (1:500; BioVision), BAX (1:500; BioVision), TRKB (1:1000; Cell Signaling, Danvers, MA, USA), p-TRKB (Y516) (1:1000; Cell Signaling), p-TRKB (Y817) (1:1000; Millipore, Billerica, MA, USA), ERK (1:1000; Cell Signaling), p-ERK (T202/Y204) (1:500; Cell Signaling), AKT (1:1000; Cell Signaling), p-AKT (S473) (1:1000; Cell Signaling), CREB (1:1000; Santa Cruz), p-CREB (S133) (1:1000; Millipore), JNK (1:1000; Cell Signaling), p-JNK (T183/Y185) (1:1000; Cell Signaling) or loading control glyceraldehyde-3-phosphate dehydrogenase (GAPDH) (1:1000; MDBio, Taipei, Taiwan). After three washes with TBST, the immune complexes were detected using horseradish peroxidase-conjugated goat anti-mouse or goat anti-rabbit secondary IgG antibody (1:5000, GeneTex, Irvine, CA, USA) and enhanced chemiluminescence substrates luminol and peroxide (Millipore). The primary and secondary antibodies used were diluted with TBST. The chemiluminescent detection was performed on ImageQuant™ LAS 4000mini (GE Healthcare).

[5] = tested on: pro-BDNF (31 kDa); experiment: Immunoblot of pro-BDNF; format: cell-based, human; details: 10 µM; induced untreated 62%
Method: as §1
(§2) ∆K280 tauRD-DsRed SH-SY5Y cells were lysed in buffer containing 50 mM Tris-HCl (pH 8.0), 150 mM NaCl, 1 mM EDTA (pH 8.0), 1 mM EGTA (pH 8.0), 0.1% SDS, 0.5% sodium deoxycholate, 1% Triton X-100 and protease (Sigma-Aldrich)/phosphatase (Roche, Basel, Switzerland) inhibitor cocktails. After two sonications with an interval of 30 min on ice, cell lysates were collected by centrifugation at 14,000× g for 30 min at 4 °C. Protein concentrations were determined using a Bradford assay (Bio-Rad, Hercules, CA, USA). Protein samples (25 µg) were separated by 10–12% SDS-PAGE and transferred to polyvinylidene difluoride (PVDF) membranes (Sigma-Aldrich). […] After three washes with TBST, the immune complexes were detected using horseradish peroxidase-conjugated goat anti-mouse or goat anti-rabbit secondary IgG antibody (1:5000, GeneTex, Irvine, CA, USA) and enhanced chemiluminescence substrates luminol and peroxide (Millipore). […]

[6] = tested on: p-JNK (T183/Y185); experiment: Immunoblot of p-JNK (T183/Y185); format: cell-based, human; details: 10 µM; versus 107% untreated; p > 0.05
Method: as §2

EC50 [1]: 84 µM
SMILES: CCOc1ccc2cc(C(=O)c3ccccc3)c(=O)oc2c1 [LMDS-1]
Oxygen radical absorbance capacity, activity equivalent to Trolox [2]: 10 μM Trolox | Neurite branching [3]: 1.00–1.06 | Neurite length [3]: 30.3–31.5 μm | p-TRKB Y516 level [4]: 92–93% | p-TRKB Y817 level [4]: 103–105% | p-TRKB (Y516/Y817) level [4]: 96–104% | pro-BDNF level [5]: 94–99% | p-JNK (T183/Y185) expression [6]: 93–108%

EC50 [1]: 8 µM
SMILES: O=C(c1ccccc1)c1cc2ccc(O)cc2oc1=O [LMDS-2]
Oxygen radical absorbance capacity, activity equivalent to Trolox [2]: 15 μM Trolox | Neurite branching [3]: 1.00–1.06 | Neurite length [3]: 30.3–31.5 μm | p-TRKB Y516 level [4]: 92–93% | p-TRKB Y817 level [4]: 103–105% | p-TRKB (Y516/Y817) level [4]: 96–104% | pro-BDNF level [5]: 94–99% | p-JNK (T183/Y185) expression [6]: 93–108%

EC50 [1]: 36 µM
SMILES: O=C(c1ccccc1)c1cc2c(O)cccc2oc1=O [LM-031, 3-benzoyl-5-hydroxychromen-2-one]
Oxygen radical absorbance capacity, activity equivalent to Trolox [2]: 51 μM Trolox | Neurite branching [3]: 1.00–1.06 | Neurite length [3]: 30.3–31.5 μm
